Source: patent US8524911B2, “3-arylamino pyridine derivatives” (Merck Serono SA, priority 2004, dated 2013)

Legend:
human MEK1 = human MEK1 (Homo sapiens, UniProt Q02750); test: MEK-1 Enzyme Assay (LANCE-HTRF); assay type: biochemical; conditions: 100 nM MEK1, 15 μM ATP, 300 nM ERK2, two hours; read-out: MEK inhibition
Description: Assay 1: MEK-1 Enzyme Assay (LANCE-HTRF)
The activity of the compounds of the present invitation may be determined by the following procedure; Inhibition of human MEK1 kinase activity was monitored with a homogenous, fluorescence based assay. The assay uses time resolved fluorescence resonance energy transfer to probe for phosphorylation of ERK1 by MEK1. The assay is carried out in low volume 96 well microtiterplates. […] After two hours, 5 nM Europium-anti-PY20 (Perkin Elmer) and 50 nM Anti-GST-Allophycocyanin (CisBio) in buffer containing 50 mM EDTA and 0.05% BSA are added and the reaction incubated for one hour in the dark. Time-resolved fluorescence is measured using a LJL-Analyst (Molecular Devices) with an excitation wavelength of 340 nm and an emission wavelength of 665 nm. The final concentration of DMSO is 2%.

Murine colon C26 cells = test: Tumor cell proliferation assay (ATP Lite), C26; assay type: cell-based; conditions: Mus musculus, 96 h, 4 days
Description: (§1) Assay 2: Tumor Cell Proliferation Assays (ATP Lite)
(§2) Murine colon C26, human melanoma A375 and MeI5 or human pancreatic MiaPaCa-2 cells were plated in 96 well Corning white plates (1500 cells/well for C26, and 2000 cells/well for A375, and MiaPaCa-2) and cultured overnight at 37° C. in 5% CO2. Inhibitors were serially diluted in 100% DMSO and subsequently added to cells to reach a final concentration of 0.25% DMSO. The cells were incubated for 4 days in the presence of test compounds in cell growth media (DMEM with 10% fetal bovine serum, 2 mM glutamine for C26, and MiaPaCa-2, and RPMI with 10% fetal bovine serum, 2 mM glutamine for A375). Cell proliferation was quantitated using the ATP lite cell proliferation kit (Packard). Columns 4-6 show the concentration of compounds required to induce 50% cell death (IC50 in μM) of […]. With “+” meaning 3 μM<IC50≦10 μM and “++” IC50≦3 μM and “n.d.” means not determined. Few compounds were also tested on human melanoma cell MeI5.

[1] = system: human melanoma A375 cells; test: Tumor cell proliferation assay (ATP Lite), A375; assay type: cell-based; conditions: A-375, 96 h, 4 days
Description: as §1, §2

[2] = system: human pancreatic MiaPaCa-2 cells; test: Tumor cell proliferation assay (ATP Lite), MiaPaCa-2; assay type: cell-based; conditions: MIA PaCa-2, 96 h, 4 days
Description: as §1, §2

human MEK1, sequence (Q02750 whole entry): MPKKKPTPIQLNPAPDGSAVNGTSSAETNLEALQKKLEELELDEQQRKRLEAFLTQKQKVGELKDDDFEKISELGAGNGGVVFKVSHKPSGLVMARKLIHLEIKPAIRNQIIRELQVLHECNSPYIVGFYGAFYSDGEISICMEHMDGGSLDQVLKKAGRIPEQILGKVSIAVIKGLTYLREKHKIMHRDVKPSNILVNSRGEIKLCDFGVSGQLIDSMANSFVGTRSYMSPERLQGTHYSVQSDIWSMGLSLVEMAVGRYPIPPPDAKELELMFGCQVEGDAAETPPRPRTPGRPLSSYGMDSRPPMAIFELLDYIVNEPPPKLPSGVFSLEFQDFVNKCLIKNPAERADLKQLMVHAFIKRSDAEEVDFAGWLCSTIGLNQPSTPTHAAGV

| SMILES | IC50 (human MEK1) | IC50 (Murine colon C26 cells) | IC50 [1] | IC50 [2] |
| --- | --- | --- | --- | --- |
| COc1cccc(C(=O)NNC(=O)c2ccncc2Nc2ccc(I)cc2F)c1 [Example 55, 3-[(2-fluoro-4-iodophenyl)amino]-N′-(3-methoxybenzoyl)-isonicotinohydrazide] | < 1 µM | 3 to 10 µM | ≤ 3 µM | 3 to 10 µM |
| Cc1cccc(NNC(=O)c2ccncc2Nc2ccc(I)cc2F)c1 [Example 90, 3-[(2-fluoro-4-iodophenyl)amino]-N′-(3-methylphenyl)isonicotino-hydrazide] | < 1 µM | ≤ 3 µM | ≤ 3 µM | ≤ 3 µM |
| CC(C)(C)OC(=O)NC1CCN(C(=O)c2ccncc2Nc2ccc(I)cc2F)CC1 [Example 34, tert-butyl(1-{3-[(2-fluoro-4-iodophenyl)amino]isonicotinoyl}-piperidin-4-yl)carbamate] | < 1 µM | 3 to 10 µM | ≤ 3 µM | 3 to 10 µM |
| CC(C)(C)ONC(=O)c1ccncc1Nc1ccc(I)cc1Cl [Example 65] | < 1 µM | 3 to 10 µM | ≤ 3 µM | 3 to 10 µM |
| C[C@@H](O)CNC(=O)c1ccncc1Nc1ccc(I)cc1F [Example 48, 3-[(2-fluoro-4-iodophenyl)amino]-N-[(2R)-2-hydroxypropyl]-isonicotinamide] | < 1 µM | ≤ 3 µM | ≤ 3 µM | ≤ 3 µM |
| O=C(NOCc1ccccc1)c1ccncc1Nc1ccc(I)cc1Cl [Example 81, N-Benzyloxy-3-(2-chloro-4-iodo-phenylamino)-isonicotinamide] | < 1 µM | 3 to 10 µM | ≤ 3 µM | 3 to 10 µM |
| O=C(NOC[C@H](O)CO)c1ccnc(Cl)c1Nc1ccc(I)cc1F [Example 43, 2-Chloro-N-[(2R)-2,3-dihydroxy-propoxy]-3-(2-fluoro-4-iodo-phenylamino)-isonicotinamide] | < 1 µM | 3 to 10 µM | ≤ 3 µM | 3 to 10 µM |
| O=C(NCCCN1CCCC1=O)c1ccncc1Nc1ccc(I)cc1F [Example 30, 3-[(2-fluoro-4-iodophenyl)amino]-N-[3-(2-oxopyrrolidin-1-yl)propyl]isonicotinamide] | < 1 µM | ≤ 3 µM | ≤ 3 µM | ≤ 3 µM |
| O=C(NCCCn1ccnc1)c1cc(Br)ncc1Nc1ccc(I)cc1F [Example 72, 2-Bromo-5-(2-fluoro-4-iodo-phenylamino)-N-(3-imidazol-1-yl-propyl)-isonicotinamide] | < 1 µM | 3 to 10 µM | ≤ 3 µM | 3 to 10 µM |
| COc1ccccc1CCNC(=O)c1ccncc1Nc1ccc(I)cc1F [Example 27, 3-[(2-fluoro-4-iodophenyl)amino]-N-[2-(2-methoxyphenyl)-ethyl]isonicotinamide] | < 1 µM | 3 to 10 µM | 3 to 10 µM | 3 to 10 µM |
| O=C(NOC[C@H](O)CO)c1ccncc1Nc1ccc(I)cc1F [Example 7, N-{[(2R)-2,3-dihydroxypropyl]oxy}-3-[(2-fluoro-4-iodophenyl)-amino]isonicotin-amide] | < 1 µM | ≤ 3 µM | ≤ 3 µM | ≤ 3 µM |
| Cc1nccc(C(N)=O)c1Nc1ccc(I)cc1F [Example 100, 3-(2-Fluoro-4-iodo-phenylamino)-2-methyl-isonicotinamide] | < 1 µM | 3 to 10 µM | ≤ 3 µM | 3 to 10 µM |
| COC(=O)c1ccncc1Nc1ccc(I)cc1Cl [Example 10, Methyl 3-[(2-chloro-4-iodophenyl)amino]isonicotinate] | < 1 µM | 3 to 10 µM | ≤ 3 µM | ≤ 3 µM |
| O=C(NCCCCO)c1ccncc1Nc1ccc(I)cc1F [Example 39, 3-[(2-fluoro-4-iodophenyl)amino]-N-(4-hydroxybutyl)-isonicotinamide] | < 1 µM | ≤ 3 µM | ≤ 3 µM | ≤ 3 µM |

Next, values leading:

| IC50 (human MEK1) | IC50 (Murine colon C26 cells) | IC50 [1] | IC50 [2] | SMILES |
| --- | --- | --- | --- | --- |
| < 1 µM | 3 to 10 µM | ≤ 3 µM | 3 to 10 µM | O=C(NCc1ccccn1)c1ccncc1Nc1ccc(I)cc1F [Example 40, 3-[(2-fluoro-4-iodophenyl)amino]-N-(pyridin-2-ylmethyl)-isonicotinamide] |
| < 1 µM | ≤ 3 µM | ≤ 3 µM | ≤ 3 µM | O=C(NCC1CC1)c1ccncc1Nc1ccc(I)cc1F [Example 53, N-(cyclopropylmethyl)-3-[(2-fluoro-4-iodophenyl)amino]-isonicotinamide] |
| < 1 µM | 3 to 10 µM | ≤ 3 µM | 3 to 10 µM | C=CCONC(=O)c1ccncc1Nc1ccc(I)cc1Cl [Example 77, N-allyloxy-3-(2-chloro-4-iodo-phenylamino)-isonicotinamide] |
| < 1 µM | ≤ 3 µM | ≤ 3 µM | ≤ 3 µM | CCNC(=O)c1ccncc1Nc1ccc(I)cc1F [Example 18, N-ethyl-3-[(2-fluoro-4-iodophenyl)amino]isonicotinamide] |
| < 1 µM | ≤ 3 µM | ≤ 3 µM | ≤ 3 µM | COCCNC(=O)c1ccncc1Nc1ccc(I)cc1F [Example 16, 3-(2-Fluoro-4-iodo-phenylamino)-N-(2-methoxy-ethyl)-isonicotinamide] |
| < 1 µM | 3 to 10 µM | ≤ 3 µM | 3 to 10 µM | O=C(O)CONC(=O)c1ccncc1Nc1ccc(I)cc1F [Example 92, [({3-[(2-fluoro-4-iodophenyl)amino]isonicotinoyl}amino)oxy]acetic acid] |
| < 1 µM | ≤ 3 µM | ≤ 3 µM | ≤ 3 µM | O=C(c1ccncc1Nc1ccc(I)cc1F)N1CCOCC1 [Example 17, [3-(2-Fluoro-4-iodo-phenylamino)-pyridin-4-yl]-morpholin-4-yl-methanone] |
| < 1 µM | ≤ 3 µM | ≤ 3 µM | ≤ 3 µM | COCCN(C)C(=O)c1ccncc1Nc1ccc(I)cc1F [Example 24, 3-[(2-fluoro-4-iodophenyl)amino]-N-(2-methoxyethyl)-N-methyl-isonicotinamide] |
| < 1 µM | 3 to 10 µM | ≤ 3 µM | 3 to 10 µM | O=C(NCc1ccccc1)c1ccncc1Nc1ccc(I)cc1F [Example 21, N-benzyl-3-[(2-fluoro-4-iodophenyl)amino]isonicotinamide] |
| < 1 µM | ≤ 3 µM | ≤ 3 µM | ≤ 3 µM | O=C(NNc1ccccc1)c1ccncc1Nc1ccc(I)cc1F [Example 32, 3-[(2-fluoro-4-iodophenyl)amino]-N′-phenylisonicotinohydrazide] |
| < 1 µM | ≤ 3 µM | ≤ 3 µM | ≤ 3 µM | NC(=O)c1cc(Br)ncc1Nc1ccc(I)cc1F [Example 68, 2-Bromo-5-(2-fluoro-4-iodo-phenylamino)-isonicotinamide] |
| < 1 µM | 3 to 10 µM | ≤ 3 µM | 3 to 10 µM | O=C(NOCc1ccccc1)c1ccncc1Nc1ccc(I)cc1F [Example 91, N-(benzyloxy)-3-[(2-fluoro-4-iodophenyl)amino]isonicotinamide] |
| < 1 µM | ≤ 3 µM | ≤ 3 µM | ≤ 3 µM | O=C(NCCCN1CCOCC1)c1ccncc1Nc1ccc(I)cc1F [Example 35, 3-[(2-fluoro-4-iodophenyl)amino]-N-(3-morpholin-4-ylpropyl)-isonicotinamide] |
| < 1 µM | 3 to 10 µM | ≤ 3 µM | 3 to 10 µM | Cc1ccc(NNC(=O)c2ccncc2Nc2ccc(I)cc2F)cc1 [Example 99, 3-[(2-fluoro-4-iodophenyl)amino]-N′-(4-methylphenyl)isonicotino-hydrazide] |
| < 1 µM | ≤ 3 µM | ≤ 3 µM | ≤ 3 µM | C[C@H](O)CNC(=O)c1ccncc1Nc1ccc(I)cc1F [Example 41, 3-[(2-fluoro-4-iodophenyl)amino]-N-[(2S)-2-hydroxypropyl]-isonicotinamide] |
| < 1 µM | 3 to 10 µM | ≤ 3 µM | 3 to 10 µM | O=C(NN1CCCCCC1)c1ccncc1Nc1ccc(I)cc1F [Example 42, N-azepan-1-yl-3-[(2-fluoro-4-iodophenyl)amino]isonicotinamide] |
| < 1 µM |  | ≤ 3 µM | 3 to 10 µM | COCCNC(=O)c1cc(Br)ncc1Nc1ccc(I)cc1F [Example 87, 2-Bromo-5-(2-fluoro-4-iodo-phenylamino)-N-(2-methoxy-ethyl)-isonicotinamide] |
